Assay results published in paper PMC7949139, “The molecular basis of OH-PCB estrogen receptor activation” (The Journal of Biological Chemistry, 2021).
Residue numbers refer to the chain shown, from its start. Read-outs that look alike come from different tables or passages of the source.

Columns and labels:
[1] = molecular target: T1, spin-labeled SULT1E1, spin label attached at Cys residue 150 (C69S/N150C) (Homo sapiens, UniProt P49888, C69S/N150C); assay: Initial-rate studies, spin-labeled construct (label at Cys 150); format: biochemical; conditions: spin label at Cys 150; parentheses = one SD; read-out: Ki OH-PCB1
T1 construct: E. coli codon-optimized SULT1E1 coding region inserted into the PreScission Protease cleavage site; His/GST/MBP triple tag (N, cleaved yes); made in house; host or cells: E. coli BL21(DE3)
T1 sequence (P49888 1-294 C69S/N150C): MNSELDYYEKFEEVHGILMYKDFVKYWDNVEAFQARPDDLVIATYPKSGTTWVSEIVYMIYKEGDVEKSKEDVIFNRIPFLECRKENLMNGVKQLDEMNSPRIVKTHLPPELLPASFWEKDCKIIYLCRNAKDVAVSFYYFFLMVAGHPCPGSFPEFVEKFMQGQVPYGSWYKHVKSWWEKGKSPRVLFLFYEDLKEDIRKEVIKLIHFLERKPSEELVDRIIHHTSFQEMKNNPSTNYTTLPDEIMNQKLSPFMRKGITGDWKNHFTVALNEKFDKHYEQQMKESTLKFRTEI
Description: (§1) Spin labels were attached to the SULT1E1 scaffold at Cys residues that were site-specifically incorporated via PCR-based mutagenesis. Prior to creating spin-label attachment constructs, reactive Cys was removed from the native scaffold. Only one of the four native SULT1E1 Cys (i.e., C69) reacts with DTNB ([39]), and mutagenic conversion of C69 to ser produced a stable, fully active non-DTNB-reactive scaffold. Five individual cys-attachment constructs were prepared from the C69S mutant (G16C, K25C, N150C, Q163C, and N233C). Mutants were labeled (see, Experimental procedures) and the initial rate parameters (kcat, Km and Ki) of each spin-labeled mutant were determined (see, Experimental procedures, Initial-Rate studies) to evaluate whether the catalytic integrity of the constructs had been compromised by the insertions and/or spin label attachments. […]
(§2) Labels (N-cyclohexylmale-imide or 3-maleimido-PROXYL) were added in 20-fold excess over reactive cysteine to a solution containing SULT1E1 construct (50 μM active sites), 0.50 mM PAP, and 50 mM KPO4 (pH 7.4), 25 °C ± 2 deg. […] The reactions were monitored by using DTNB to measure unreacted cysteine and were considered complete when >98% of the cysteine had reacted (∼3 h).
(§3) C. Reaction progress was monitored via the fluorescence change associated with 1-HP sulfonation (λex = 325 nm, λem = 370 nm ([51], [52])). […]

[2] = molecular target: T2, spin-labeled SULT1E1, spin label attached at Cys residue 233 (C69S/N233C) (Homo sapiens, UniProt P49888, C69S/N233C); assay: Initial-rate studies, spin-labeled construct (label at Cys 233); format: biochemical; conditions: spin label at Cys 233; parentheses = one SD; read-out: Ki OH-PCB1
T2 construct: E. coli codon-optimized SULT1E1 coding region inserted into the PreScission Protease cleavage site; His/GST/MBP triple tag (N, cleaved yes); made in house; host or cells: E. coli BL21(DE3)
T2 sequence (P49888 1-294 C69S/N233C): T1 sequence (P49888 1-294 C69S/N150C) with C150N, N233C
Description: as §1, §2, §3

SULT1E1 F75A = molecular target: T3, SULT1E1 F75A (Homo sapiens, UniProt P49888, F75A); assay: Initial-rate studies (1-HP sulfonation; OH-PCB1 inhibition), F75A mutant; format: biochemical
T3 construct: E. coli codon-optimized SULT1E1 coding region inserted into the PreScission Protease cleavage site; His/GST/MBP triple tag (N, cleaved yes); made in house; host or cells: E. coli BL21(DE3)
T3 sequence (P49888 1-294 F75A): T1 sequence (P49888 1-294 C69S/N150C) with S69C, F75A, C150N
Description: C. Reaction progress was monitored via the fluorescence change associated with 1-HP sulfonation (λex = 325 nm, λem = 370 nm ([51], [52])). Initial rates were measured during conversion to product of ≤5% of the concentration-limiting substrate consumed at the reaction endpoint. Velocities were determined in triplicate. Km and kcat were obtained by (1/v^4)-weighted least-squares fitting of the averaged data in double-reciprocal space (i.e., 1/v versus 1/[S]) ([66], [67]).
Inhibition studies were performed as described above except: 1-HP was fixed (2.0 μM, 100 × Km), OH-PCBs were added (0.20–20 × Ki), and SULT1E1 was 0.20 nM (active sites). Ki was determined by least-squares fitting to a noncompetitive inhibition model ([66], [67]).

SULT1E1 = molecular target: T4, SULT1E1 (Homo sapiens, UniProt P49888); assay: Equilibrium binding studies (SULT1E1 intrinsic fluorescence); conditions: for Kd: pH 7.4, 25 °C, spread = one SD
T4 construct: E. coli codon-optimized SULT1E1 coding region inserted into the PreScission Protease cleavage site; His/GST/MBP triple tag (N, cleaved yes); made in house; host or cells: E. coli BL21(DE3)
T4 sequence (P49888 1-294): T1 sequence (P49888 1-294 C69S/N150C) with S69C, C150N
Description: The binding of inhibitors to WT and mutant SULT1E1 was monitored via ligand-induced changes in the intrinsic fluorescence of the enzyme (λex= 290 nm, λem= 340 nm) ([4]). […] C. Titrations were performed in triplicate and the averaged data were least-squares fit to the following quadratic, single-site binding model: Io − ΔI∙(([L]+Etot + Kd) − [([L]+Etot + Kd)^2 − (4∙[L]∙Etot)]^1/2)/2∙Etot, where Io and ΔI represent fluorescent intensity at zero and infinite [L].

## Oc1ccc(-c2c(Cl)cccc2Cl)cc1 [OH-PCB1, 4ʹ-OH-2,6-dichlorobiphenol]
[1]
  Ki: 65 nM
[2]
  Ki: 58 nM
SULT1E1 F75A
  Fold Effect = Ki OH-PCB1/Ki OH-PCB1 WT: 11
SULT1E1 F75A; noncompetitive inhibition model, parentheses = one SD
  Ki: 630 nM
SULT1E1; E2 4.0 μM (higher partner concentration), PAP 300 μM, read-out: Kd, ligand binding to enzyme species E⋅PAP⋅E2
  Kd: 62 nM
SULT1E1; E2 4.0 μM, no PAP, read-out: Kd, ligand binding to enzyme species E⋅E2
  Kd: 66 nM
SULT1E1; OH-PCB1: E⋅E2 versus E, E2: E⋅PAP⋅OH-PCB1 versus E⋅PAP
  fold tighter binding in the presence of the partner ligand (OH-PCB1/E2 interaction): ~12 fold
SULT1E1; PAP 300 μM, read-out: Kd, ligand binding to enzyme species E⋅PAP
  Kd: 780 nM
SULT1E1; free enzyme E, read-out: Kd, ligand binding to enzyme species E
  Kd: 750 nM
